# Test results taken from patent publication US20240254119A1 (THIRD HARMONIC BIO, INC., priority 2022, published 2024).
# Target: T1, wtKIT (Homo sapiens, UniProt P10721)
# T1 construct: 1888289AM in the reaction mixtures
# Assay: HTRF biochemical assay, wtKIT (phosphorylation of a peptide substrate)
# Conditions: Table 4
# Method in brief: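 HTRF read-out of FAM-peptide (1 µM) phosphorylation after anti-phosphotyrosine antibody addition and EDTA quench. Reaction: 5.0 nM wtKIT, 400 µM ATP, 10 mM Mn2+, HEPES pH 7.5, 1% DMSO, 3 h, 25 °C; optional enzyme-compound preincubation; enzyme level set for 10-20% conversion.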
# T1 sequence (P10721 26-976): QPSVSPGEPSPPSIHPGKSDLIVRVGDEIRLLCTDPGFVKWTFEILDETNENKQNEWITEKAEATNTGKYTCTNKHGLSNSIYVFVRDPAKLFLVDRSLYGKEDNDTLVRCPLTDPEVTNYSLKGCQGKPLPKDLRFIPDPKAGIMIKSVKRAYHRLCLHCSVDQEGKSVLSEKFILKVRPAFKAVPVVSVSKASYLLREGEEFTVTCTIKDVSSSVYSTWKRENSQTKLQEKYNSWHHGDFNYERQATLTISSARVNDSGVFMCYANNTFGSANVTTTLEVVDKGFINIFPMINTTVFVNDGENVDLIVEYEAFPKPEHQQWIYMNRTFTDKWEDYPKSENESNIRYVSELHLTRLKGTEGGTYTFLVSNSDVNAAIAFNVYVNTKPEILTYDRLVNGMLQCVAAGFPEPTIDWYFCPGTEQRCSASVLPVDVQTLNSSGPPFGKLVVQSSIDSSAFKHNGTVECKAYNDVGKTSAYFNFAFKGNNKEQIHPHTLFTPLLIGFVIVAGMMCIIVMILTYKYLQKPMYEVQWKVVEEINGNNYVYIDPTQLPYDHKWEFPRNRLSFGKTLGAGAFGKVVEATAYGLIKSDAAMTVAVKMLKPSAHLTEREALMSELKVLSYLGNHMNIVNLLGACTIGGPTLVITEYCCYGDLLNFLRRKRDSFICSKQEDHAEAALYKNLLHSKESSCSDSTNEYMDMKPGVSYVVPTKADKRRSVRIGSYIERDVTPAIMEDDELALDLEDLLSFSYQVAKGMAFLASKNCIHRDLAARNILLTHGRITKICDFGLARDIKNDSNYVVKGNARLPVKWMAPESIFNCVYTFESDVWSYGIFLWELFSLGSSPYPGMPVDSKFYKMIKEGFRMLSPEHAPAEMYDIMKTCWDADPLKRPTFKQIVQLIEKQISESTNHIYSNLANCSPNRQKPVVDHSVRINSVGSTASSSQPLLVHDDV
row,Structure (SMILES),IC50
1,"Cc1nc(-c2ccc(C)c(NC(=O)c3cnc4cc(-c5csc(CO)n5)ccn34)c2)no1 [Compound I-594, 7-(2-(hydroxymethyl)thiazol-4-yl)-N-(2-methyl-5-(5-methyl-1,2,4-oxadiazol-3-yl)phenyl)imidazo[1,2-a]pyridine-3-carboxamide]",≤ 50 nM
2,"Cc1nc(-c2ccc(C)c(NC(=O)c3cnc4cc(-c5ncsc5CO)ccn34)c2)no1 [Compound I-595, 7-(5-(hydroxymethyl)thiazol-4-yl)-N-(2-methyl-5-(5-methyl-1,2,4-oxadiazol-3-yl)phenyl)imidazo[1,2-a]pyridine-3-carboxamide]",≤ 50 nM
3,"Cc1ccc(-c2noc(C[C@H](O)C(F)F)n2)cc1NC(=O)c1cnc2cc(COCc3nn[nH]n3)ccn12 [Compound I-597, (S)-7-(((2H-tetrazol-5-yl)methoxy)methyl)-N-(5-(5-(3,3-difluoro-2-hydroxypropyl)-1,2,4-oxadiazol-3-yl)-2-methylphenyl)imidazo[1,2-a]pyridine-3-carboxamide]",≤ 50 nM
4,CNC(C)COCc1ccn2c(C(=O)Nc3cc(-c4noc(CC(O)C(F)F)n4)ccc3C)cnc2c1 (stereo not shown) [Compound I-598],50 to 500 nM
5,CNC(C)COCc1ccn2c(C(=O)Nc3cc(-c4noc(CC(O)C(F)F)n4)ccc3C)cnc2c1 (stereo not shown) [Compound I-599],50 to 500 nM
6,Cc1ccc(-c2noc(CC(O)C(F)F)n2)cc1NC(=O)c1cnc2cc(COCC(C)N(C)C(=O)OC(C)(C)C)ccn12 (stereo not shown) [Compound I-600],50 to 500 nM
7,"Cc1ccc(-c2noc(N3CC(F)(F)C3)n2)cc1NC(=O)c1cnc2cc(Cl)ccn12 [Compound I-601, 7-chloro-N-(5-(5-(3,3-difluoroazetidin-1-yl)-1,2,4-oxadiazol-3-yl)-2-methylphenyl)imidazo[1,2-a]pyridine-3-carboxamide]",≤ 50 nM
8,Cc1ccc(-c2noc(C[C@H](C)O)n2)cc1NC(=O)c1cnc2cc(Cl)ccn12 [Compound I-602],≤ 50 nM
9,"COc1ccn2c(C(=O)Nc3cc(-c4noc(N5CC(F)(F)C5)n4)ccc3C)cnc2c1 [Compound I-603, N-(5-(5-(3,3-difluoroazetidin-1-yl)-1,2,4-oxadiazol-3-yl)-2-methylphenyl)-7-methoxyimidazo[1,2-a]pyridine-3-carboxamide]",≤ 50 nM
10,Cc1ccc(-c2noc([C@H](O)CO)n2)cc1NC(=O)c1cnc2cc(Cl)ccn12 [Compound I-604],500 to 5000 nM
11,Cc1ccc(-c2noc([C@H]3C[C@@H]3F)n2)cc1NC(=O)c1cnc2cc(F)c(Cl)cn12 [Compound I-605],50 to 500 nM
12,Cc1ccc(-c2noc(CC(C)O)n2)cc1NC(=O)c1cnc2cc(F)ccn12 (stereo not shown) [Compound I-606],50 to 500 nM
13,COC[C@@H](O)c1nc(-c2ccc(C)c(NC(=O)c3cnc4cc(C)ccn34)c2)no1 [Compound I-607],500 to 5000 nM
14,COCC(O)c1nc(-c2ccc(C)c(NC(=O)c3cnc4cc(C)ccn34)c2)no1 (stereo not shown) [Compound I-608],50 to 500 nM
15,Cc1ccc(-c2noc(N3CC(F)(F)C3)n2)cc1NC(=O)c1cnc2cc(F)c(Cl)cn12 [Compound I-610],50 to 500 nM
16,COc1cc2ncc(C(=O)Nc3cc(-c4noc(N5CC(F)(F)C5)n4)ccc3C)n2cc1F [Compound I-611],≤ 50 nM
17,"Cc1ccc(-c2noc([C@H]3C[C@@H]3F)n2)cc1NC(=O)c1cnc2cc(Cl)c(F)cn12 [Compound I-613, 7-Chloro-6-fluoro-N-(5-(5-((1R,2S)-2-fluorocyclopropyl)-1,2,4-oxadiazol-3-yl)-2-methylphenyl)imidazo[1,2-a]pyridine-3-carboxamide]",≤ 50 nM
18,"Cc1ccc(-c2noc(CC3CCCO3)n2)cc1NC(=O)c1cnc2cc(Cl)ccn12 (stereo not shown) [Compound I-615, 7-Chloro-N-[2-methyl-5-[5-(tetrahydrofuran-2-ylmethyl)-1,2,4-oxadiazol-3-yl]phenyl]imidazo[1,2-a]pyridine-3-carboxamide]",≤ 50 nM
19,"CC[C@@H](O)Cc1nc(-c2ccc(C)c(NC(=O)c3cnc4cc(Cl)ccn34)c2)no1 [Compound I-616, 7-chloro-N-[5-[5-[(2R)-2-hydroxybutyl]-1,2,4-oxadiazol-3-yl]-2-methyl-phenyl]imidazo[1,2-a]pyridine-3-carboxamide]",≤ 50 nM
20,"Cc1ccc(-c2noc([C@H]3C[C@@H]3F)n2)cc1NC(=O)c1cnc2cc(COCC3(O)CC3)ccn12 [Compound I-622, N-(5-(5-((1R,2S)-2-fluorocyclopropyl)-1,2,4-oxadiazol-3-yl)-2-methylphenyl)-7-(((1-hydroxycyclopropyl)methoxy)methyl)imidazo[1,2-a]pyridine-3-carboxamide]",≤ 50 nM
21,Cc1ccc(-c2noc([C@H]3C[C@@H](N)C3)n2)cc1NC(=O)c1cnc2cc(Cl)ccn12 [Compound I-623],500 to 5000 nM
22,"Cc1ccc(-c2noc([C@H]3CCN3)n2)cc1NC(=O)c1cnc2cc(-c3ccn(C)n3)ccn12 [Compound I-624, N-[5-[5-[(2R)-azetidin-2-yl]-1,2,4-oxadiazol-3-yl]-2-methyl-phenyl]-7-(1-methylpyrazol-3-yl)imidazo[1,2-a]pyridine-3-carboxamide]",≤ 50 nM
23,Cc1ccc(-c2noc(N3CC(F)(F)C3)n2)cc1NC(=O)c1cnn2cc(Cl)ccc12 [Compound I-625],≤ 50 nM

row,Structure (SMILES),IC50
1,Cc1ccc(-c2noc(N3CC(F)(F)C3)n2)cc1NC(=O)c1cnn2cc(F)ccc12 [Compound I-626],50 to 500 nM
2,"Cc1ccc(-c2noc([C@@H]3CC4(CC4)CN3)n2)cc1NC(=O)c1cnc2cc(Cl)ccn12 [Compound I-627, (S)—N-(5-(5-(5-azaspiro[2.4]heptan-6-yl)-1,2,4-oxadiazol-3-yl)-2-methylphenyl)-7-chloroimidazo[1,2-a]pyridine-3-carboxamide]",≤ 50 nM
3,"Cc1ccc(-c2noc([C@@H]3CC4(CC4)CN3)n2)cc1NC(=O)c1cnc2cc(F)ccn12 [Compound I-628, (S)—N-(5-(5-(5-azaspiro[2.4]heptan-6-yl)-1,2,4-oxadiazol-3-yl)-2-methylphenyl)-7-fluoroimidazo[1,2-a]pyridine-3-carboxamide]",≤ 50 nM
4,"Cc1nc(-c2ccc(C)c(NC(=O)c3cnc4cc(OCCCN5CCCC5)ccn34)c2)no1 [Compound I-629, N-(2-methyl-5-(5-methyl-1,2,4-oxadiazol-3-yl)phenyl)-7-(3-(pyrrolidin-1-yl)propoxy)imidazo[1,2-a]pyridine-3-carboxamide]",≤ 50 nM
5,"Cc1ccc(-c2noc([C@H]3C[C@@H]3F)n2)cc1NC(=O)c1cnc2cc(OCCCN3CCCC3)ccn12 [Compound I-630, N-(5-(5-((1R,2S)-2-fluorocyclopropyl)-1,2,4-oxadiazol-3-yl)-2-methylphenyl)-7-(3-(pyrrolidin-1-yl)propoxy)imidazo[1,2-a]pyridine-3-carboxamide]",≤ 50 nM
6,"Cc1ccc(-c2noc(N3CC(F)(F)C3)n2)cc1NC(=O)c1cnc2cc(OCCCN3CCCC3)ccn12 [Compound I-631, N-(5-(5-(3,3-difluoroazetidin-1-yl)-1,2,4-oxadiazol-3-yl)-2-methylphenyl)-7-(3-(pyrrolidin-1-yl)propoxy)imidazo[1,2-a]pyridine-3-carboxamide]",≤ 50 nM
7,"COc1ccn2c(C(=O)Nc3cc(-c4noc(CC5COC5)n4)ccc3C)cnc2c1 [Compound I-633, 7-Methoxy-N-[2-methyl-5-[5-(oxetan-3-ylmethyl)-1,2,4-oxadiazol-3-yl]phenyl]imidazo[1,2-a]pyridine-3-carboxamide]",≤ 50 nM
8,"Cc1ccc(-c2noc([C@@H]3CC4(CC4)CN3)n2)cc1NC(=O)c1cnc2cc(-c3cscn3)ccn12 [Compound I-635, N-[5-[5-[(6S)-5-azaspiro[2.4]heptan-6-yl]-1,2,4-oxadiazol-3-yl]-2-methyl-phenyl]-7-thiazol-4-yl-imidazo[1,2-a]pyridine-3-carboxamide]",≤ 50 nM
9,Cc1ccc(-c2noc(CC3COC3)n2)cc1NC(=O)c1cnc2cc(COCC3(O)CC3)ccn12 [Compound I-637],50 to 500 nM
10,"COCc1ccn2c(C(=O)Nc3cc(-c4noc([C@@H]5CC6(CC6)CN5)n4)ccc3C)cnc2c1 [Compound I-638, N-[5-[5-[(6S)-5-azaspiro[2.4]heptan-6-yl]-1,2,4-oxadiazol-3-yl]-2-methyl-phenyl]-7-(methoxymethyl)imidazo[1,2-a]pyridine-3-carboxamide]",≤ 50 nM
11,"Cc1ccc(-c2ncon2)cc1NC(=O)c1cnn2ccccc12 [Compound I-640, N-(2-methyl-5-(1,2,4-oxadiazol-3-yl)phenyl)pyrazolo[1,5-a]pyridine-3-carboxamide]",50 to 500 nM
12,"Cc1ccc(-c2ncon2)cc1NC(=O)c1cnc2cc(COCC(C)(C)O)ccn12 [Compound I-641, 7-((2-hydroxy-2-methylpropoxy)methyl)-N-(2-methyl-5-(1,2,4-oxadiazol-3-yl)phenyl)imidazo[1,2-a]pyridine-3-carboxamide]",500 to 5000 nM
13,COCc1ccn2c(C(=O)Nc3cc(-c4noc(CCN5CCCCC5)n4)ccc3C)cnc2c1 [Compound I-666],50 to 500 nM
14,CCc1nc(-c2ccc(C)c(NC(=O)c3cnc4cc(-c5csc(CO)n5)ccn34)c2)no1 [Compound I-672],≤ 50 nM
15,Cc1nc(-c2ccc(C)c(NC(=O)c3cnc4cc(Cl)ccn34)c2)no1 [Compound I-675],≤ 50 nM
16,COCc1ccn2c(C(=O)Nc3cc(-c4ncon4)ccc3C)cnc2c1 [Compound I-677],50 to 500 nM
17,Cc1ccc(-c2ncon2)cc1NC(=O)c1cnc2cc(-c3ccn(C)n3)ccn12 [Compound I-684],≤ 50 nM
18,Cc1ccc(-c2ncon2)cc1NC(=O)c1cnc2cc(-c3csc(CO)n3)ccn12 [Compound I-685],≤ 50 nM
19,Cc1nc(-c2ccc(C)c(NC(=O)c3cnc4cc(C5COC5)ccn34)c2)no1 [Compound I-687],50 to 500 nM
20,Cc1ccc(-c2ncon2)cc1NC(=O)c1cnc2cc(-c3cscn3)ccn12 [Compound I-694],≤ 50 nM
21,Cc1ccc(-c2ncon2)cc1NC(=O)c1cnc2cc(COCCO)ccn12 [Compound I-700],50 to 500 nM
22,CCNc1ccn2c(C(=O)Nc3cc(-c4ncon4)ccc3C)cnc2c1 [Compound I-706],≤ 50 nM
23,Cc1ccc(-c2noc(-c3cccnc3)n2)cc1NC(=O)c1cnc2cc(COCCO)ccn12 [Compound I-708],50 to 500 nM
